{
  "source": "ChEMBL document CHEMBL1806377",
  "about": "“Synthesis and evaluation of a radioiodinated trisaccharide derivative as a synthetic substrate for a sensitive N-acetylglucosaminyltransferase V radioassay” (Bioorg Med Chem, 2011)",
  "details_in_all_cases": "tested as the 125I-labelled form",
  "key": {"[1]": {"target": "T1, Alpha-1,6-mannosylglycoprotein 6-beta-N-acetylglucosaminyltransferase A (Rattus norvegicus) (UniProt Q08834)", "T1 sequence (whole entry)": "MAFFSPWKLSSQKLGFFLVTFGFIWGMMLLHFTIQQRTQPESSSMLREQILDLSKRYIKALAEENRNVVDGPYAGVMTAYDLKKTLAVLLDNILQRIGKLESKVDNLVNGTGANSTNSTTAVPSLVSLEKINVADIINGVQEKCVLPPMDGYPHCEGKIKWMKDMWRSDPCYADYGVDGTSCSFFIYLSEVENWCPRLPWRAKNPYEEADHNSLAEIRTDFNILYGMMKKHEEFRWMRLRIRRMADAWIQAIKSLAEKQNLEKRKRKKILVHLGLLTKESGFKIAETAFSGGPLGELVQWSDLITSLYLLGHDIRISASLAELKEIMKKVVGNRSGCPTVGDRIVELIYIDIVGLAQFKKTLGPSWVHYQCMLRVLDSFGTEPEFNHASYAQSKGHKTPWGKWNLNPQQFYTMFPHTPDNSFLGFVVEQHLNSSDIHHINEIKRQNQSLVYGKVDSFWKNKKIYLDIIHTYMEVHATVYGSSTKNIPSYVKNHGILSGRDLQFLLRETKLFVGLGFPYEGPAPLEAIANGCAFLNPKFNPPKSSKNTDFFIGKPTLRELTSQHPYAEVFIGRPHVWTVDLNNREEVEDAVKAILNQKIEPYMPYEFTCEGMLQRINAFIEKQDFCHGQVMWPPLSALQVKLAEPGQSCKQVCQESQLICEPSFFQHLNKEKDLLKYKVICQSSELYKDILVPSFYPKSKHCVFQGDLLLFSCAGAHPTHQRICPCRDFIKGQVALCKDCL", "assay": "Activity at Wistar rat serum GnT-V assessed per mg of protein after 4 hrs by radio HPLC analysis"}, "[2]": {"target": "T1, Alpha-1,6-mannosylglycoprotein 6-beta-N-acetylglucosaminyltransferase A (Rattus norvegicus)", "assay": "Activity at Wistar rat kidney GnT-V assessed per mg of protein after 4 hrs by radio HPLC analysis"}, "[3]": {"target": "T1, Alpha-1,6-mannosylglycoprotein 6-beta-N-acetylglucosaminyltransferase A (Rattus norvegicus)", "assay": "Activity at Wistar rat intestine GnT-V assessed per mg of protein after 4 hrs by radio HPLC analysis"}, "[4]": {"target": "T1, Alpha-1,6-mannosylglycoprotein 6-beta-N-acetylglucosaminyltransferase A (Rattus norvegicus)", "assay": "Activity at Wistar rat heart GnT-V assessed per mg of protein after 4 hrs by radio HPLC analysis"}, "[5]": {"target": "T1, Alpha-1,6-mannosylglycoprotein 6-beta-N-acetylglucosaminyltransferase A (Rattus norvegicus)", "assay": "Activity at Wistar rat stomach GnT-V assessed per mg of protein after 4 hrs by radio HPLC analysis"}, "[6]": {"target": "T1, Alpha-1,6-mannosylglycoprotein 6-beta-N-acetylglucosaminyltransferase A (Rattus norvegicus)", "assay": "Activity at Wistar rat spleen GnT-V assessed per mg of protein after 4 hrs by radio HPLC analysis"}, "[7]": {"target": "T1, Alpha-1,6-mannosylglycoprotein 6-beta-N-acetylglucosaminyltransferase A (Rattus norvegicus)", "assay": "Activity at Wistar rat lung GnT-V assessed per mg of protein after 4 hrs by radio HPLC analysis"}, "[8]": {"target": "T1, Alpha-1,6-mannosylglycoprotein 6-beta-N-acetylglucosaminyltransferase A (Rattus norvegicus)", "assay": "Activity at Wistar rat brain GnT-V assessed per mg of protein after 4 hrs by radio HPLC analysis"}, "[9]": {"target": "T1, Alpha-1,6-mannosylglycoprotein 6-beta-N-acetylglucosaminyltransferase A (Rattus norvegicus)", "assay": "Activity at Wistar rat liver GnT-V assessed per mg of protein after 4 hrs by radio HPLC analysis"}},
  "data": [
    {"smiles": "CC(=O)N[C@H]1[C@H](O[C@@H]2[C@@H](OC[C@H]3O[C@@H](OCCc4ccc(I)cc4)[C@H](O)[C@@H](O)[C@@H]3O)O[C@H](CO)[C@@H](O)[C@@H]2O)O[C@H](CO)[C@@H](O)[C@@H]1O", "values": [
      {"measurement": "Activity", "setting": "[1]", "value": 1280, "unit": "pmol/h"},
      {"measurement": "Activity", "setting": "[2]", "value": 671, "unit": "pmol/h"},
      {"measurement": "Activity", "setting": "[3]", "value": 774, "unit": "pmol/h"},
      {"measurement": "Activity", "setting": "[4]", "value": 31, "unit": "pmol/h"},
      {"measurement": "Activity", "setting": "[5]", "value": 116, "unit": "pmol/h"},
      {"measurement": "Activity", "setting": "[6]", "value": 244, "unit": "pmol/h"},
      {"measurement": "Activity", "setting": "[7]", "value": 179, "unit": "pmol/h"},
      {"measurement": "Activity", "setting": "[8]", "value": 261, "unit": "pmol/h"},
      {"measurement": "Activity", "setting": "[9]", "value": 48, "unit": "pmol/h"}
    ]}
  ]
}
